Test results published in patent US6737383B1, “Herbicidal oxadiazolidines” (priority 1999, dated 2004).

Tests used:
[1] = tested on: blackgrass; experiment: Test B pre/postemergence blackgrass; assay type: in vivo, Alopecurus myosuroides
In short: (§1)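 Herbicidal effect was estimated by eye on a ten-point control scale after plants spent twelve to sixteen days in a greenhouse following soil or foliar treatment. Foliar sprays targeted plants at one to four leaves; all doses were formulated in a non-phytotoxic solvent with surfactant.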

[2] = tested on: morningglory; experiment: Test B pre/postemergence morningglory; assay type: in vivo, Ipomoea hederacea
In short: as §1

[3] = tested on: cocklebur; experiment: Test B pre/postemergence cocklebur; assay type: in vivo, Xanthium strumarium
In short: as §1

[4] = tested on: pigweed; experiment: Test B pre/postemergence pigweed; assay type: in vivo, Amaranthus retroflexus
In short: as §1

[5] = tested on: velvetleaf; experiment: Test B pre/postemergence velvetleaf; assay type: in vivo, Abutilon theophrasti; settings: for Plant response rating, Velvetleaf: Rate 250 g/ha
In short: as §1

[6] = tested on: surinam grass; experiment: Test B pre/postemergence surinam grass; assay type: in vivo, Brachiaria decumbens
In short: as §1

[7] = tested on: corn; experiment: Test B pre/postemergence corn; assay type: in vivo, Zea mays
In short: as §1

[8] = tested on: rape; experiment: Test B pre/postemergence rape; assay type: in vivo, Brassica napus
In short: as §1

[9] = tested on: sugar beet; experiment: Test B pre/postemergence sugar beet; assay type: in vivo, Beta vulgaris; settings: for Plant response rating, Sugarbeets: Rate 250 g/ha
In short: as §1

[10] = tested on: wheat; experiment: Test B pre/postemergence wheat; assay type: in vivo, Triticum aestivum; settings: for Plant response rating, Wheat: Rate 250 g/ha
In short: as §1

[11] = tested on: duck salad; experiment: Test B flood test duck salad; assay type: in vivo, Heteranthera limosa
In short: (§2)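 Flood test on plants grown to the 2-leaf stage; treated plants kept in greenhouse twelve to sixteen days, then visually rated against controls on a 0 (no effect) to 10 (complete control) scale.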

[12] = tested on: wild oat; experiment: Test B pre/postemergence wild oat; assay type: in vivo, Avena fatua; settings: for Plant response rating, Wild oats: Rate 250 g/ha
In short: as §1

[13] = tested on: purple nutsedge; experiment: Test B pre/postemergence purple nutsedge; assay type: in vivo, Cyperus rotundus
In short: as §1

[14] = tested on: crabgrass; experiment: Test B pre/postemergence crabgrass; assay type: in vivo, Digitaria sanguinalis
In short: as §1

[15] = tested on: bedstraw; experiment: Test B pre/postemergence bedstraw; assay type: in vivo, Galium aparine
In short: as §1

[16] = tested on: smallflower flatsedge; experiment: Test B flood test smallflower flatsedge; assay type: in vivo, Cyperus difformis
In short: as §2

[17] = Postemergence, Rate 125 g/ha, scale of 0 to 10 where 0 is no effect and 10 is complete control
[18] = Postemergence, Rate 250 g/ha, scale 0 to 10, 0 no effect, 10 complete control
[19] = Preemergence, Rate 62 g/ha, scale 0 to 10 (0 no effect, 10 complete control)
[20] = Preemergence, Rate 125 g/ha, scale 0 to 10 (0 no effect, 10 complete control)
[21] = Preemergence, Rate 250 g/ha, scale of 0 to 10 where 0 is no effect and 10 is complete control
[22] = Preemergence, Rate 500 g/ha, scale 0 to 10 (0 no effect, 10 complete control)
[23] = Rate 62 g/ha, Postemergence, scale of 0 to 10 where 0 is no effect and 10 is complete control
[24] = Rate 500 g/ha, Postemergence, scale 0 to 10, 0 no effect, 10 complete control
[25] = Preemergence, Rate 125 g/ha, 0 is no effect, 10 is complete control
[26] = Preemergence, scale of 0 to 10 where 0 is no effect and 10 is complete control
[27] = Postemergence, scale 0 to 10, 0 is no effect, 10 is complete control
[28] = Postemergence, Rate 62 g/ha, scale 0 to 10, 0 is no effect, 10 is complete control
[29] = Rate 125 g/ha, Postemergence, scale 0 to 10, 0 no effect, 10 complete control
[30] = Postemergence (flood test species), Rate 125 g/ha, scale of 0 to 10 where 0 is no effect and 10 is complete control
[31] = Rate 62 g/ha, Postemergence section, flood test species, scale of 0 to 10 where 0 is no effect and 10 is complete control
[32] = Rate 250 g/ha, headed Pre-emergence (flood test species), scale 0 to 10 (0 no effect, 10 complete control)
[33] = Rate 500 g/ha, headed Pre-emergence (flood test species), scale 0 to 10 (0 no effect, 10 complete control)
[34] = Rate 500 g/ha, listed under Postemergence (flood test species), scale 0 to 10, 0 no effect, 10 complete control
[35] = Rate 2000 g/ha, Pre-emergence (as headed), scale 0 to 10

SMILES: CC(C)N(C(=O)n1oc(=O)n(C(C)C)c1=O)c1ccc(F)cc1F [Compound 109]
- Blackgrass plant response rating [1, 17]: 8
- Blackgrass plant response rating [1, 18]: 8
- Blackgrass plant response rating [1, 19]: 8
- Plant response rating, Blackgrass [1, 20]: 8
- Plant response rating, Blackgrass [1, 21]: 10
- Blackgrass plant response rating [1, 22]: 10
- Blackgrass plant response rating [1, 23]: 7
- Blackgrass plant response rating [1, 24]: 8
- Morningglory plant response rating [2, 17]: 3
- Morningglory plant response rating [2, 18]: 5
- Morningglory plant response rating [2, 19]: 0
- Plant response rating, Morningglory [2, 20]: 5
- Plant response rating, Morningglory [2, 21]: 6
- Morningglory plant response rating [2, 22]: 10
- Morningglory plant response rating [2, 23]: 3
- Morningglory plant response rating [2, 24]: 5
- Cocklebur plant response rating [3, 17]: 3
- Cocklebur plant response rating [3, 18]: 4
- Cocklebur plant response rating [3, 19]: 0
- Plant response rating, Cocklebur [3, 20]: 0
- Plant response rating, Cocklebur [3, 21]: 0
- Cocklebur plant response rating [3, 22]: 5
- Cocklebur plant response rating [3, 23]: 2
- Cocklebur plant response rating [3, 24]: 5
- Redroot pigweed plant response rating [4, 17]: 5
- Redroot pigweed plant response rating [4, 19]: 10
- Plant response rating, Redroot pigweed [4, 20]: 10
- Plant response rating, Redroot pigweed [4, 21]: 10
- Redroot pigweed plant response rating [4, 22]: 10
- Redroot pigweed plant response rating [4, 23]: 3
- Plant response rating, Redroot pigweed ([4]; Rate 250 g/ha, Postemergence, scale 0 to 10, 0 is no effect, 10 is complete control): 8
- Redroot pigweed plant response rating [4, 24]: 8
- Velvetleaf plant response rating [5, 17]: 2
- Velvetleaf plant response rating [5, 19]: 5
- Velvetleaf plant response rating (0 to 10 scale) [5, 25]: 7
- Plant response rating, Velvetleaf [5, 26]: 10
- Velvetleaf plant response rating [5, 22]: 10
- Velvetleaf plant response rating [5, 23]: 0
- Plant response rating, Velvetleaf [5, 27]: 6
- Velvetleaf plant response rating [5, 24]: 6
- B. signalgrass plant response rating [6, 28]: 7
- B. signalgrass plant response rating [6, 18]: 8
- B. signalgrass plant response rating [6, 19]: 9
- Plant response rating, B. signalgrass [6, 20]: 9
- Plant response rating, B. signalgrass [6, 21]: 10
- B. signalgrass plant response rating [6, 22]: 10
- B. signalgrass plant response rating [6, 29]: 7
- B. signalgrass plant response rating ([6]; Rate 500 g/ha, Postemergence, scale of 0 to 10 where 0 is no effect and 10 is complete control): 8
- Corn plant response rating [7, 17]: 0
- Corn plant response rating [7, 18]: 3
- Corn plant response rating [7, 19]: 0
- Plant response rating, Corn [7, 20]: 3
- Plant response rating, Corn [7, 21]: 7
- Corn plant response rating [7, 22]: 9
- Corn plant response rating [7, 23]: 0
- Corn plant response rating [7, 24]: 5
- Rape plant response rating [8, 17]: 3
- Rape plant response rating [8, 18]: 4
- Rape plant response rating [8, 19]: 7
- Plant response rating, Rape [8, 20]: 8
- Plant response rating, Rape [8, 21]: 9
- Rape plant response rating [8, 22]: 10
- Rape plant response rating [8, 23]: 3
- Rape plant response rating [8, 24]: 6
- Sugarbeets plant response rating [9, 17]: 4
- Sugarbeets plant response rating [9, 19]: 8
- Sugarbeets plant response rating (0 to 10 scale) [9, 25]: 10
- Plant response rating, Sugarbeets [9, 26]: 10
- Sugarbeets plant response rating [9, 22]: 10
- Sugarbeets plant response rating [9, 23]: 3
- Plant response rating, Sugarbeets [9, 27]: 6
- Sugarbeets plant response rating [9, 24]: 7
- Wheat plant response rating [10, 17]: 0
- Wheat plant response rating [10, 19]: 0
- Wheat plant response rating (0 to 10 scale) [10, 25]: 5
- Plant response rating, Wheat [10, 26]: 9
- Wheat plant response rating [10, 22]: 10
- Wheat plant response rating [10, 23]: 0
- Plant response rating, Wheat [10, 27]: 5
- Wheat plant response rating [10, 24]: 6
- Ducksalad plant response rating [11, 30]: 0
- Ducksalad plant response rating [11, 31]: 0
- Ducksalad plant response rating [11, 32]: 0
- Plant response rating, Ducksalad [11, 33]: 0
- Ducksalad plant response rating [11, 34]: 0
- Ducksalad plant response rating ([11]; Rate 1000 g/ha, Pre-emergence (as headed), scale 0 to 10): 1
- Ducksalad plant response rating [11, 35]: 6
- Ducksalad plant response rating ([11]; flood test, listed under Postemergence, Rate 250 g/ha, scale 0 to 10, 0 no effect, 10 complete control): 0
- Wild oats plant response rating [12, 17]: 0
- Wild oats plant response rating [12, 19]: 8
- Wild oats plant response rating (0 to 10 scale) [12, 25]: 10
- Plant response rating, Wild oats [12, 26]: 10
- Wild oats plant response rating [12, 22]: 10
- Wild oats plant response rating [12, 23]: 0
- Plant response rating, Wild oats [12, 27]: 4
- Wild oats plant response rating [12, 24]: 7
- Nutsedge plant response rating [13, 17]: 0
- Nutsedge plant response rating [13, 18]: 0
- Nutsedge plant response rating [13, 19]: 0
- Plant response rating, Nutsedge [13, 20]: 0
- Plant response rating, Nutsedge [13, 21]: 0
- Nutsedge plant response rating [13, 22]: 0
- Nutsedge plant response rating [13, 23]: 0
- Nutsedge plant response rating [13, 24]: 4
- Crabgrass plant response rating [14, 17]: 9
- Crabgrass plant response rating [14, 18]: 9
- Crabgrass plant response rating [14, 19]: 10
- Plant response rating, Crabgrass [14, 20]: 10
- Plant response rating, Crabgrass [14, 21]: 10
- Crabgrass plant response rating [14, 22]: 10
- Crabgrass plant response rating [14, 23]: 8
- Crabgrass plant response rating [14, 24]: 9
- Bedstraw plant response rating [15, 28]: 6
- Bedstraw plant response rating [15, 18]: 9
- Bedstraw plant response rating [15, 19]: 8
- Plant response rating, Bedstraw [15, 20]: 10
- Plant response rating, Bedstraw [15, 21]: 10
- Bedstraw plant response rating [15, 22]: 10
- Bedstraw plant response rating [15, 29]: 8
- S. Flatsedge plant response rating [16, 30]: 0
- S. Flatsedge plant response rating ([16]; Pre-emergence, Rate 1000 g/ha, scale 0 to 10 (0 no effect, 10 complete control)): 8
- S. Flatsedge plant response rating [16, 31]: 0
- Plant response rating, S. Flatsedge ([16]; Rate 250 g/ha, Postemergence (flood test), scale 0 to 10, 0 is no effect, 10 is complete control): 0
- S. Flatsedge plant response rating [16, 32]: 0
- Plant response rating, S. Flatsedge [16, 33]: 0
- S. Flatsedge plant response rating [16, 34]: 0
- S. Flatsedge plant response rating [16, 35]: 8
